T/C data for 27 molecules are collected here from PubChem BioAssay AID206 (DTP/NCI, 2004).

“And” between values parts separate entries of the source, which are not always exact repeats. Equal entries are not always repeated. Results filed as inconclusive are left out.

In the assay the test system is nude mice, HT29 intrarenal xenograft, tumor weight T/C. Put plainly: NCI In Vivo Anticancer Drug Screen. Data for tumor model HT29;CX-1 Human Adenocarcinoma (MER+) (intrarenal inoculation) in NU/NU Swiss (nude) mice. Particulars: endpoint: mean tumor weight change, higher = larger tumour. An outline of the steps:
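Endpoint measured as tumor size or survival; ratio reported is treated group over vehicle controls.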

Setting [1] is: dose: 1.0 mg/kg/injection, schedule: Q01DX010 (sc), vehicle: saline.
Where [2] appears, read: dose: 300.0 mg/kg/injection, schedule: Q04DX004 (sc), vehicle: saline with Tween-80.
Where [3] appears, read: dose: 300.0 mg/kg/injection, schedule: Q04DX004 (sc), vehicle: saline.
Setting [4] is: dose: 600.0 mg/kg/injection, schedule: Q04DX004 (sc), vehicle: saline.
[5] abbreviates: dose: 1200.0 mg/kg/injection, schedule: Q04DX004 (sc), vehicle: saline.
[6] abbreviates: dose: 2400.0 mg/kg/injection, schedule: Q04DX004 (sc), vehicle: saline.
[7] abbreviates: dose: 75.0 mg/kg/injection, schedule: Q04DX004 (sc), vehicle: saline with Tween-80.
The mark [8] stands for this setting: dose: 150.0 mg/kg/injection, schedule: Q04DX004 (sc), vehicle: saline with Tween-80.
[9] abbreviates: dose: 600.0 mg/kg/injection, schedule: Q04DX004 (sc), vehicle: saline with Tween-80.
[10] abbreviates: dose: 1200.0 mg/kg/injection, schedule: Q04DX004 (sc), vehicle: saline with Tween-80.
The mark [11] stands for this setting: dose: 2400.0 mg/kg/injection, schedule: Q04DX004 (sc), vehicle: saline with Tween-80.
Setting [12] is: dose: 200.0 mg/kg/injection, schedule: Q01DX010 (sc), vehicle: saline.
Where [13] appears, read: dose: 600.0 mg/kg/injection, schedule: Q04DX004 (sc), vehicle: Klucel (hydroxypropylcellulose) (HPC).

On to `NC(=O)CC(N)C(=O)O` (configuration not stated), for which the T/C runs as follows: (dose: 400.0 mg/kg/injection, schedule: Q04DX004 (sc), vehicle: saline) 151 % of control; (dose: 800.0 mg/kg/injection, schedule: Q04DX004 (sc), vehicle: saline) 119 % of control; (dose: 3200.0 mg/kg/injection, schedule: Q04DX004 (sc), vehicle: saline) 90 % of control.

As to `N/C(=N\O)c1cn(C2OC(CO)C(O)C2O)c2ncnc(N)c12` (configuration not stated), the T/C (dose: 5.0 mg/kg/injection, schedule: Q04DX004 (sc), vehicle: Klucel (hydroxypropylcellulose) (HPC)) is 67 % of control.

`S=P(N1CC1)(N1CC1)N1CC1`: the T/C is, setting by setting: under setting [1], 34 % of control; (dose: 2.0 mg/kg/injection, schedule: Q01DX010 (sc), vehicle: saline) 80 % of control.

For `CC[n+]1c(-c2ccccc2)c2cc(N)ccc2c2ccc(N)cc21`, the T/C runs as follows: (dose: 15.0 mg/kg/injection, schedule: Q04DX004 (sc), vehicle: saline) 119 % of control; (dose: 30.0 mg/kg/injection, schedule: Q04DX004 (sc), vehicle: saline) 66 % of control; (dose: 60.0 mg/kg/injection, schedule: Q04DX004 (sc), vehicle: saline) 53 % of control.

In the case of `CC(=S)NC(O)C(=O)c1ccccc1` (configuration not stated), the T/C under setting [2] is 116 % of control.

With `OCCOCC(F)(F)F`, the T/C runs as follows: under setting [3], 67 % of control; under setting [4], 91 % of control; under setting [5], 100 % of control; under setting [6], 58 % of control.

Take `CC1CC(C)CC(C)C(O)/C(C#N)=C/C=C/CC(C2CCCC2C(=O)O)OC(=O)CC(O)C(C)C1` (configuration not stated): the T/C by setting is: (dose: 1.5 mg/kg/injection, schedule: Q04DX004 (sc), vehicle: Klucel (hydroxypropylcellulose) (HPC)) 87 % of control; (dose: 3.0 mg/kg/injection, schedule: Q04DX004 (sc), vehicle: Klucel (hydroxypropylcellulose) (HPC)) 76 % of control; (dose: 6.0 mg/kg/injection, schedule: Q04DX004 (sc), vehicle: Klucel (hydroxypropylcellulose) (HPC)) 40 % of control; (dose: 12.0 mg/kg/injection, schedule: Q04DX004 (sc), vehicle: Klucel (hydroxypropylcellulose) (HPC)) 69 % of control.

On to `C[Si](C)(CCl)N[Si](C)(C)CCl`, for which the T/C is 91 % of control under setting [7], 84 % of control under setting [8], 101 % of control under setting [2] and 78 % of control under setting [9].

As for `CCCCCn1c(C)cc(/C=C\c2ccc3cc(C)ccc3[n+]2C)c1C`, the T/C reads like this: (dose: 1.0 mg/kg/injection, schedule: Q01DX010 (sc), vehicle: Klucel (hydroxypropylcellulose) (HPC)) 89 % of control; (dose: 2.0 mg/kg/injection, schedule: Q01DX010 (sc), vehicle: Klucel (hydroxypropylcellulose) (HPC)) 182 % of control; (dose: 4.0 mg/kg/injection, schedule: Q01DX010 (sc), vehicle: Klucel (hydroxypropylcellulose) (HPC)) 89 % of control.

In the case of `Nc1cccc(=O)[nH]1`, the T/C is 115 % of control under setting [3], 96 % of control under setting [4], 87 % of control under setting [5] and 79 % of control under setting [6].

`CN(C)C(=O)c1cccc(COc2ccc(N3C(N)=NC(N)=NC3(C)C)cc2Cl)c1`: the T/C (dose: 12.5 mg/kg/injection, schedule: Q01DX010 (sc), vehicle: water) is 82 % of control.

Turning to `CSc1nc(=O)[nH]nc1SCc1ccccc1`, the T/C was 76 % of control (dose: 200.0 mg/kg/injection, schedule: Q04DX004 (sc), vehicle: Klucel (hydroxypropylcellulose) (HPC)); 56 % of control (dose: 400.0 mg/kg/injection, schedule: Q04DX004 (sc), vehicle: Klucel (hydroxypropylcellulose) (HPC)); 90 % of control (dose: 800.0 mg/kg/injection, schedule: Q04DX004 (sc), vehicle: Klucel (hydroxypropylcellulose) (HPC)).

In the case of `Cc1c2cc(Cl)c3ccccc3c2c[n+]2ccccc12`, the T/C under setting [2] is 101 % of control, the T/C under setting [9] was 82 % of control and the T/C under setting [10] was 103 % of control.

Turning to `OC(C1CO1)C(O)C1CO1` (configuration not stated), the T/C by setting is: (dose: 0.5 mg/kg/injection, schedule: Q01DX010 (sc), vehicle: saline) 113 % of control; under setting [1], 52 % of control.

Regarding `O=c1cc(-c2ccccc2)[nH]c2c1CCCC2`, the T/C is 82 % of control (dose: 100.0 mg/kg/injection, schedule: Q04DX004 (sc), vehicle: saline with Tween-80); 70 % of control (dose: 200.0 mg/kg/injection, schedule: Q04DX004 (sc), vehicle: saline with Tween-80); 67 % of control (dose: 400.0 mg/kg/injection, schedule: Q04DX004 (sc), vehicle: saline with Tween-80); 37 % of control under setting [9]; 68 % of control (dose: 800.0 mg/kg/injection, schedule: Q04DX004 (sc), vehicle: saline with Tween-80); 58 % of control under setting [10]. In addition, under setting [11], the T/C is 101 % of control.

Consider `CC(=O)ON(C(C)=O)c1ccc(C(N)=O)cc1`, for which the T/C by setting is: under setting [7], 83 % of control; under setting [8], 77 % of control; under setting [2], 60 % of control; under setting [9], 71 % of control and 78 % of control; under setting [10], 103 % of control; under setting [11], 61 % of control.

With `O=C1c2ccccc2C(=O)c2c(NCCNCCO)ccc(O)c21`, the T/C by setting is: (dose: 25.0 mg/kg/injection, schedule: Q04DX004 (sc), vehicle: suspension in saline) 74 % of control; (dose: 50.0 mg/kg/injection, schedule: Q04DX004 (sc), vehicle: suspension in saline) 73 % of control; (dose: 100.0 mg/kg/injection, schedule: Q04DX004 (sc), vehicle: suspension in saline) 111 % of control.

Turning to `O=c1[nH]c(=O)n(C2CC(O)C(CO)O2)cc1C(F)(F)F` (configuration not stated), the T/C (dose: 100.0 mg/kg/injection, schedule: Q01DX010 (sc), vehicle: saline) is 202 % of control; the T/C under setting [12] is 104 % of control; the T/C (dose: 400.0 mg/kg/injection, schedule: Q01DX010 (sc), vehicle: saline) is 73 % of control.

With `S=c1nc[nH]c2nc[nH]c12`, the T/C was 200 % of control (dose: 12.5 mg/kg/injection, schedule: Q01DX010 (sc), vehicle: Klucel (hydroxypropylcellulose) (HPC)) and 81 % of control (dose: 25.0 mg/kg/injection, schedule: Q01DX010 (sc), vehicle: Klucel (hydroxypropylcellulose) (HPC)).

As for `O=NN(CCCl)C(=O)NC1[C@H](O)CCC[C@@H]1O` (some centres not stated), the T/C (dose: 10.0 mg/kg/injection, schedule: Q04DX004 (sc), vehicle: saline) was 90 % of control.

With `OC1CCCC2CCC[N-]C12.OC1CCCC2CCC[N-]C12.[Mn+2]` (configuration not stated), the T/C is 114 % of control (dose: 150.0 mg/kg/injection, schedule: Q04DX004 (sc), vehicle: Klucel (hydroxypropylcellulose) (HPC)) and 124 % of control under setting [13].

With `Cc1c2c(ccc3ccccc32)c[n+]2ccccc12`, the T/C (dose: 6.25 mg/kg/injection, schedule: Q01DX010 (sc), vehicle: saline) was 84 % of control and the T/C (dose: 12.5 mg/kg/injection, schedule: Q01DX010 (sc), vehicle: saline) is 82 % of control.

On to `COC1C(/C=C/C(C)=O)OC2OC(C)(C)OC21` (configuration not stated), for which the T/C (dose: 75.0 mg/kg/injection, schedule: Q04DX004 (sc), vehicle: suspension in saline) was 74 % of control; the T/C (dose: 150.0 mg/kg/injection, schedule: Q04DX004 (sc), vehicle: suspension in saline) was 106 % of control; the T/C (dose: 300.0 mg/kg/injection, schedule: Q04DX004 (sc), vehicle: suspension in saline) was 54 % of control; the T/C (dose: 600.0 mg/kg/injection, schedule: Q04DX004 (sc), vehicle: suspension in saline) is 20 % of control.

In the case of `COc1cc(C)c2c(c1C=O)Oc1c(c(C)c(O)c3c1C(O)OC3=O)OC2=O` (configuration not stated), the T/C by setting is: (dose: 50.0 mg/kg/injection, schedule: Q01DX010 (sc), vehicle: saline) 68 % of control; under setting [12], 50 % of control.

Regarding `O=C1CN(Cc2ccc3c(c2)OCO3)NO1`, the T/C by setting is: under setting [8], 92 % of control; under setting [2], 103 % of control.

For `O=c1nc(-c2ccco2)sc(=O)[nH]1`, the T/C by setting is: (dose: 300.0 mg/kg/injection, schedule: Q04DX004 (sc), vehicle: Klucel (hydroxypropylcellulose) (HPC)) 235 % of control; under setting [13], 98 % of control.

With `CN=C(N)N/N=C(\C)c1ccc2oc3ccc(/C(C)=N/NC(N)=NC)cc3c2c1`, the T/C was 156 % of control under setting [7], 63 % of control under setting [8] and 98 % of control under setting [2].
